Molecules are shown by their SMILES.

The results in this text go back to patent US11446287B2, “Compounds and methods for EP300 or CBP modulation and indications therefor” (Opna Immuno-Oncology SA, priority 2019, dated 2022).

The assay deals with T1, Recombinant human BRD4 containing dual bromodomains (BRD4-BD12 (1-477)) (Homo sapiens, UniProt O60885).
T1 construct: Recombinant human BRD4 containing dual bromodomains (BRD4-BD12 (1-477)); made in house; host or cells: E. coli BL21-CodonPlus (DE3), modified pET vector
The experiment in a line: BRD4 Alphascreen binding assay. In a few lines:
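His-tagged human BRD4 tandem bromodomains (1-477, E. coli) incubated 1 h at room temperature with biotinylated tetra-acetylated H4 (1-21) peptide and compound in HEPES pH 7.5 buffer with 2 mM DTT. AlphaScreen signal read 30 min after adding beads (7.5 μg/ml); IC50 from four-parameter fit after normalization to controls.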
For `Cc1noc(C)c1-c1cnc2c(c1)c(-c1ccc(C(=O)O)cc1)cn2[C@@H](C)c1ccccn1` [P-0001, (S)-4-(5-(3,5-dimethylisoxazol-4-yl)-1-(1-(pyridin-2-yl)ethyl)-1H-pyrrolo[2,3-b]pyridin-3-yl)benzoic acid], the IC50 was in the range of 8 to 1000 µM.

`Cc1noc(C)c1-c1cnc2c(c1)c(-c1ccc(C(=O)O)cc1)cn2C(c1ccccn1)C1CCCC1` (stereo not drawn) [P-0002, 4-(1-(cyclopentyl(pyridin-2-yl)methyl)-5-(3,5-dimethylisoxazol-4-yl)-1H-pyrrolo[2,3-b]pyridin-3-yl)benzoic acid]: the IC50 fell in the range of 0.0001 to 1 µM.

Turning to `Cc1noc(C)c1-c1cnc2c(c1)c(-c1ccccc1)cn2C(c1ccccn1)C1CCCC1` (stereo not drawn) [P-0003, 4-(1-(cyclopentyl(pyridin-2-yl)methyl)-3-phenyl-1H-pyrrolo[2,3-b]pyridin-5-yl)-3,5-dimethylisoxazole], the IC50 was in the range of 8 to 1000 µM.

For the compound `Cc1noc(C)c1-c1cnc2c(c1)c(-c1ccc(C(=O)O)cc1)cn2C(c1ccccn1)C1CCCCC1` (stereo not drawn) [P-0004, 4-(1-(cyclohexyl(pyridin-2-yl)methyl)-5-(3,5-dimethylisoxazol-4-yl)-1H-pyrrolo[2,3-b]pyridin-3-yl)benzoic acid], the half-maximal inhibitory concentration (IC50) lay in the range of 8 to 1000 µM.

In the case of `COC(=O)c1ccc(-c2cn(S(=O)(=O)c3ccc(C)cc3)c3ncc(-c4c(C)noc4C)cc23)cc1` [P-0005, methyl 4-(5-(3,5-dimethylisoxazol-4-yl)-1-tosyl-1H-pyrrolo[2,3-b]pyridin-3-yl)benzoate], the IC50 fell in the range of 8 to 1000 µM.

For `Cc1noc(C)c1-c1cnc2c(c1)c(-c1ccnc(C(=O)O)c1)cn2S(=O)(=O)c1ccccc1` [P-0055, 4-(5-(3,5-dimethylisoxazol-4-yl)-1-(phenylsulfonyl)-1H-pyrrolo[2,3-b]pyridin-3-yl)picolinic acid], the IC50 was in the range of 0.0001 to 1 µM.

With `COc1cccc(Cn2cc(-c3cccc(C(=O)O)c3)c3cc(-c4c(C)noc4C)cnc32)c1` [P-0056, 3-(5-(3,5-dimethylisoxazol-4-yl)-1-(3-methoxybenzyl)-1H-pyrrolo[2,3-]pyridin-3-yl)benzoic acid], the IC50 was 1 to 8 µM.

Consider `COc1cccc(Cn2cc(-c3ccnc(C(=O)O)c3)c3cc(-c4c(C)noc4C)cnc32)c1` [P-0057, 4-(5-(3,5-dimethylisoxazol-4-yl)-1-(3-methoxybenzyl)-1H-pyrrolo[2,3-b]pyridin-3-yl)picolinic acid], for which the IC50 fell in the range of 1 to 8 µM.

For the compound `Cc1noc(C)c1-c1cnc2c(c1)c(-c1cccc(C(=O)O)c1)cn2C(C1CC1)C1CC1` [P-0058, 3-(1-(dicyclopropylmethyl)-5-(3,5-dimethylisoxazol-4-yl)-1H-pyrrolo[2,3-b]pyridin-3-yl)benzoic acid], the IC50 was 8 to 1000 µM.

For the compound `Cc1noc(C)c1-c1cnc2c(c1)c(-c1cccc(C(=O)O)c1)cn2Cc1cccc(OC(F)(F)F)c1` [P-0059, 3-(5-(3,5-dimethylisoxazol-4-yl)-1-(3-(trifluoromethoxy)benzyl)-1H-pyrrolo[2,3-b]pyridin-3-yl)benzoic acid], the IC50 fell in the range of 8 to 1000 µM.

On to `Cc1noc(C)c1-c1cnc2c(c1)c(-c1cccc(C(=O)O)c1)cn2Cc1cccc(F)c1` [P-0060, 3-(5-(3,5-dimethylisoxazol-4-yl)-1-(3-fluorobenzyl)-1H-pyrrolo[2,3-b]pyridin-3-yl)benzoic acid], for which the IC50 lay in the range of 1 to 8 µM.

With `Cc1noc(C)c1-c1cnc2c(c1)c(-c1cccc(C(=O)O)c1)cn2Cc1cccc(Cl)c1` [P-0061, 3-(1-(3-chlorobenzyl)-5-(3,5-dimethylisoxazol-4-yl)-1H-pyrrolo[2,3-b]pyridin-3-yl)benzoic acid], the IC50 lay in the range of 8 to 1000 µM.

As to `Cc1cccc(Cn2cc(-c3cccc(C(=O)O)c3)c3cc(-c4c(C)noc4C)cnc32)c1` [P-0062, 3-(5-(3,5-dimethylisoxazol-4-yl)-1-(3-methylbenzyl)-1H-pyrrolo[2,3-b]pyridin-3-yl)benzoic acid], the IC50 lay within 8 to 1000 µM.

For `Cc1noc(C)c1-c1cnc2c(c1)c(-c1cccc(C(=O)O)c1)cn2Cc1cccc(C(F)(F)F)c1` [P-0063, 3-(5-(3,5-dimethylisoxazol-4-yl)-1-(3-(trifluoromethyl)benzyl)-1H-pyrrolo[2,3-b]pyridin-3-yl)benzoic acid], the IC50 lay within 8 to 1000 µM.

With `Cc1noc(C)c1-c1cnc2c(CC3CCC3)cn(-c3ccc(C(=O)O)cc3OC(F)F)c2c1` [P-0064, 4-(3-(cyclobutylmethyl)-6-(3,5-dimethylisoxazol-4-yl)-1H-pyrrolo[3,2-b]pyridin-1-yl)-3-(difluoromethoxy)benzoic acid], the IC50 is 1 to 8 µM.

For the compound `Cc1noc(C)c1-c1cnc2c(CC3CC3)cn(-c3ccnc(C(=O)O)c3)c2c1` [P-0065, 4-(3-(cyclopropylmethyl)-6-(3,5-dimethylisoxazol-4-yl)-1H-pyrrolo[3,2-b]pyridin-1-yl)picolinic acid], the IC50 is 1 to 8 µM.

For the compound `Cc1noc(C)c1-c1cnc2c(CC3CCC3)cn(-c3ccc(C(=O)O)cc3OC(F)(F)F)c2c1` [P-0066, 4-(3-(cyclobutylmethyl)-6-(3,5-dimethylisoxazol-4-yl)-1H-pyrrolo[3,2-b]pyridin-1-yl)-3-(trifluoromethoxy)benzoic acid], the IC50 lay in the range of 8 to 1000 µM.

For `COc1cc(C(=O)O)cc(OC)c1-n1cc(CC2CCC2)c2ncc(-c3c(C)noc3C)cc21` [P-0067, 4-(3-(cyclobutylmethyl)-6-(3,5-dimethylisoxazol-4-yl)-1H-pyrrolo[3,2-b]pyridin-1-yl)-3,5-dimethoxybenzoic acid], the IC50 fell in the range of 1 to 8 µM.

As to `Cc1noc(C)c1-c1cnc2c(CC3CCC3)cn(-c3ccc(S(C)(=O)=O)c(F)c3)c2c1` [P-0068, 4-(3-(cyclobutylmethyl)-1-(3-fluoro-4-(methylsulfonyl)phenyl)-1H-pyrrolo[3,2-b]pyridin-6-yl)-3,5-dimethylisoxazole], the IC50 fell in the range of 8 to 1000 µM.

As for `Cc1noc(C)c1-c1cnc2c(c1)c(C#CC(=O)O)cn2Cc1ccccc1` [P-0069, 3-(1-benzyl-5-(3,5-dimethylisoxazol-4-yl)-1H-pyrrolo[2,3-b]pyridin-3-yl)propiolic acid], the IC50 was in the range of 8 to 1000 µM.

On to `Cc1noc(C)c1-c1cnc2c(c1)c(-c1ccc(C(=O)O)cc1OC(F)(F)F)cn2[C@@H](C)c1ccccn1` [P-0070, (S)-4-(5-(3,5-dimethylisoxazol-4-yl)-1-(1-(pyridin-2-yl)ethyl)-1H-pyrrolo[2,3-b]pyridin-3-yl)-3-(trifluoromethoxy)benzoic acid], for which the IC50 lay within 8 to 1000 µM.

Turning to `Cc1noc(C)c1-c1cnc2c(c1)c(-c1ccc(C(=O)O)cc1OC(F)F)cn2[C@@H](C)c1ccccn1` [P-0071, (S)-3-(difluoromethoxy)-4-(5-(3,5-dimethylisoxazol-4-yl)-1-(1-(pyridin-2-yl)ethyl)-1H-pyrrolo[2,3-b]pyridin-3-yl)benzoic acid], the IC50 fell in the range of 1 to 8 µM.

For the compound `Cc1noc(C)c1-c1cnc2c(c1)c(-c1cccc(C(=O)O)c1)cn2C(C1CCC1)C1CCC1` [P-0072, 3-(1-(dicyclobutylmethyl)-5-(3,5-dimethylisoxazol-4-yl)-1H-pyrrolo[2,3-b]pyridin-3-yl)benzoic acid], the IC50 fell in the range of 1 to 8 µM.

Consider `Cc1noc(C)c1-c1cnc2c(c1)c(-c1cccc(C(=O)O)c1)cn2C(c1ccccn1)C1CCC1` (stereo not drawn) [P-0073, 3-(1-(cyclobutyl(pyridin-2-yl)methyl)-5-(3,5-dimethylisoxazol-4-yl)-1H-pyrrolo[2,3-b]pyridin-3-yl)benzoic acid], for which the IC50 fell in the range of 8 to 1000 µM.
